US5965787A, “HLA-DRBI peptides with specific binding affinity for HLA-DQ molecules: prevention and treatment of rheumatoid arthritis” (Mayo Foundation for Medical Education and Research, priority 1995, dated 1999)

Tested on: lymph node cells from B10.RQB3-DRB1*1502 positive and negative littermates (H-2A^q)
Assay: T cell proliferation assay, lymph node cells of immunized B10.RQB3 mice
Assay type: cell-based, mouse
Settings: for T cell response of DRB1*1502 transgene positive animals compared with negative littermates / B10.RQB3 controls: mice immunized with 200 μg HII 250-270 in CFA, in vitro HII 250-270 4, 20, 100 μg/ml, PPD 20, LPS 40, Con A 10 μg/ml, FIG. 2

| Substance | T cell response of DRB1*1502 transgene positive animals compared with negative littermates / B10.RQB3 controls | mean cpm of lymph node cells challenged in vitro (positive control of the DRB1 peptide proliferation assay) |
| --- | --- | --- |
| Concanavalin A [Con A] | similar | > 100,000 cpm |
| lipopolysaccharide [LPS] | similar |  |
